Assay results reported in PubChem BioAssay AID504426 (Johns Hopkins Ion Channel Center, 2011).
Active and inactive are the calls of the source.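 How the source made its calls: active means channel current reduced at one or more tested doses, with a fitted dose-response curve; inactive means no curve fitted, or no current reduction at any dose.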

Molecular target: Voltage-dependent T-type calcium channel subunit alpha-1H (Homo sapiens) (UniProt O95180)
Test: concentration-dependent block of Cav3.2 currents – automated patch clamp, HEK293 cells, mechanism study, dose response (AID 504426)
Conditions: Cav3.2-HEK293, automated patch clamp peak current; for current change, negative = inhibition: at 30 µM (top of the series)

Sequence of Voltage-dependent T-type calcium channel subunit alpha-1H (Homo sapiens) (O95180 whole entry, looked up): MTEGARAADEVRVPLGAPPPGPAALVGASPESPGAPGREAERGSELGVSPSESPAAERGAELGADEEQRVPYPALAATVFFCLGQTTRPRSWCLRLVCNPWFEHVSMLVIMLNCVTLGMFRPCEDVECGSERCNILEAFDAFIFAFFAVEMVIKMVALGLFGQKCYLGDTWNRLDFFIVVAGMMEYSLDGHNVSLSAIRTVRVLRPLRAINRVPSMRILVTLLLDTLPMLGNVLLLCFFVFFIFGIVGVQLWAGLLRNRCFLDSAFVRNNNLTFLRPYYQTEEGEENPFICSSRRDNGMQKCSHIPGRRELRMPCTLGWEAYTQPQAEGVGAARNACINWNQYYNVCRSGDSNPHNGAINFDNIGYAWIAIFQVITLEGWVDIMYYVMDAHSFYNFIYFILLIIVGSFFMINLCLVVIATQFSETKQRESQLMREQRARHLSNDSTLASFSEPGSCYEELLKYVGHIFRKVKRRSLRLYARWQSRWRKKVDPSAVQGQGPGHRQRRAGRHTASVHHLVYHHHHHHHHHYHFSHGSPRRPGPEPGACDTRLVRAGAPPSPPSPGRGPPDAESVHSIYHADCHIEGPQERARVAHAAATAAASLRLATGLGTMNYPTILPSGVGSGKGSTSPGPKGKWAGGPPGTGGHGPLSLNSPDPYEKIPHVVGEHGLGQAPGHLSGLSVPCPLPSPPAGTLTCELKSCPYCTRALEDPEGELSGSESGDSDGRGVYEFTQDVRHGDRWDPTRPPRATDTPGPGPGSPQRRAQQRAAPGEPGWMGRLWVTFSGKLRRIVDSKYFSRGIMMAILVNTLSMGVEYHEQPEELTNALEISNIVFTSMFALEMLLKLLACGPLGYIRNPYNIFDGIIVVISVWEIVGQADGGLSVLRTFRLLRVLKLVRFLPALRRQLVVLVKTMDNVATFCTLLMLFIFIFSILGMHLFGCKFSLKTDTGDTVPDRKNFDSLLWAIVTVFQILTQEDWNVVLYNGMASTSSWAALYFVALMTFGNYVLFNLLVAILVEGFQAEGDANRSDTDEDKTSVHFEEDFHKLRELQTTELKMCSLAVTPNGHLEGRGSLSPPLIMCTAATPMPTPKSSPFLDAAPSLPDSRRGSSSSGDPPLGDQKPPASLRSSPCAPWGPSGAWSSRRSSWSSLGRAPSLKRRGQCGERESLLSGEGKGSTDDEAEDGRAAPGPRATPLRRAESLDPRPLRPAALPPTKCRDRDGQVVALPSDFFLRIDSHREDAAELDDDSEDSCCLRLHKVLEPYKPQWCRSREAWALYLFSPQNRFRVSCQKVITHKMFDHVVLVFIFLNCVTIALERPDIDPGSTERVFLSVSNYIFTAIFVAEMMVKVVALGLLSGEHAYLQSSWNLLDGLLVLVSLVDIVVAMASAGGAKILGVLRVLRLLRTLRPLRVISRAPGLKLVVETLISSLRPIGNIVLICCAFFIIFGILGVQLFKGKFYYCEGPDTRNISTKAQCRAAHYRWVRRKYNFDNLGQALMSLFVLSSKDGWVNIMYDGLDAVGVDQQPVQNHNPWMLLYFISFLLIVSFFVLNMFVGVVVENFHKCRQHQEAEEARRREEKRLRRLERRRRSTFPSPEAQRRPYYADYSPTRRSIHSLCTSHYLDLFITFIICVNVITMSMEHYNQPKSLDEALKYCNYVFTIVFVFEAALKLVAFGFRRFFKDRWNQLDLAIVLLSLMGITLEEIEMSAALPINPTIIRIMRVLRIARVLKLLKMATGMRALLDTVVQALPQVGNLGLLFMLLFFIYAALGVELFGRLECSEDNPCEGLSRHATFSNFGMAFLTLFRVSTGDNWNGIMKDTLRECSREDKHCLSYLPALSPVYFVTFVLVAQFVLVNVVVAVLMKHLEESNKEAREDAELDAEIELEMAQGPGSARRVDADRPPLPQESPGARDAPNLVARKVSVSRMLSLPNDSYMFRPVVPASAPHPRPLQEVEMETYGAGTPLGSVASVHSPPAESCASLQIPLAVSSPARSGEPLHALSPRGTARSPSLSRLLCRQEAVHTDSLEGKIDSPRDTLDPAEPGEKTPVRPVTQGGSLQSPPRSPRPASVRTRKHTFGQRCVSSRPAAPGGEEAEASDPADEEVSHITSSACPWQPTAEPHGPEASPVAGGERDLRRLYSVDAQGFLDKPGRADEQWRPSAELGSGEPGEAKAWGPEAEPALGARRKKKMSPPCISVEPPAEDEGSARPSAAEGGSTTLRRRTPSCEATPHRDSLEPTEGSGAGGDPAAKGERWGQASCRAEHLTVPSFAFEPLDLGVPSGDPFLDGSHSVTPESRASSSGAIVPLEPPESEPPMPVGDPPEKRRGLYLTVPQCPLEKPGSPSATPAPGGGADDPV

IC50 [µM] | Compound | current change, negative = inhibition
 | CC(C)(C)Cc1nnc(NC(=O)COc2ccc(Cl)cc2Cl)o1 | inactive
0.31 | CC(C)(C)CCN1C[C@@H]2C(CNC(=O)c3cc(Cl)cc(Cl)c3)[C@@H]2C1 (some centres undefined) | 
 | Cc1ccc(-c2nnc(NC(=O)COc3ccc(F)cc3Cl)o2)cc1C | inactive
13.5 | O=C(COc1ccc(F)cc1Cl)Nc1nnc(-c2ccc(F)c(F)c2)o1 | 
